Source: ChEMBL document CHEMBL3832068, “DailyMed|setid=9ddd37f9-299e-4c98-91ed-deeb72c63b00 | GRIS-PEG - griseofulvin tablet, film coated|State of Florida DOH Central Pharmacy”

Assays:
[1] = (§1) Mean pharmacokinetic parameters for Griseofulvin following single dose administration of unaltered 250 mg ultramicrocrystalline Griseofulvin tablets, with or without applesauce, to 24 healthy volunteers; type: ADME, organism-based; design: dose 250 mg, route oral; conditions: human, in vivo, dietary status Fasting, dosed compound id 34, dosed compound name GRISEOFULVIN, gender male and female, regimen Single dose, tissue Plasma
Homo sapiens = assay: as §1; type: ADME, organism-based; design: dose 250 mg, route oral; conditions: in vivo, po, dietary status Fasting, dosed compound id 34, dosed compound name GRISEOFULVIN, gender male and female, regimen Single dose, tissue Plasma

AUC ([1]; po, 250 mg): 8620 ng·h/mL
Cmax ([1]; po, 250 mg): 601 ng/mL
Tmax ([1]; dose 250 mg, route oral): 4.04 h
Tmax (Homo sapiens; dose 250 mg): 3.08 h
AUC (Homo sapiens): 9023.71 ng·h/mL
Cmax (Homo sapiens): 672.61 ng/mL
Compound: COC1=CC(=O)C[C@@H](C)[C@]12Oc1c(Cl)c(OC)cc(OC)c1C2=O [GRISEOFULVIN]
